Where two headings read alike, the source gives them in different places.
How the values were obtained:
Experiment in all cases: Glasshouse assay for herbicidal activity (pre- and post-emergence), percentage phytotoxicity
Assay type in all cases: in vivo
[1] = system: Alopecurus myosuroides (ALOMY); settings: Alopecurus myosuroides
In short: (§1)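 Sow seed in standard soil in pots; apply test herbicide after 1 day (PRE) or about 12 days (POST). Grow on in the glasshouse, watering twice daily, cool-season species at 20/16 °C and warm-season at 24/18 °C. Score visible damage (0–100%) at 20 or 15 DAA respectively.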

Avena fatua (AVEFA) = settings: Avena fatua
In short: as §1

Lolium perenne (LOLPE) = settings: Lolium perenne
In short: as §1

[2] = system: Echinochloa crus-galli (ECHCG); settings: Echinochloa crus-galli
In short: as §1

[3] = post-emergence, 360 h, POST-emergence, rate 250 g/ha, visual score 15 DAA (100%=total damage, 0%=no damage), read-out: Post-emergence herbicidal activity (percentage phytotoxicity) ALOMY POST
[4] = pre-emergence, 480 h, PRE-emergence, rate 250 g/ha, visual score 20 DAA (100%=total damage, 0%=no damage), read-out: Pre-emergence herbicidal activity (percentage phytotoxicity) ALOMY PRE
[5] = post-emergence, 360 h, POST-emergence, rate 250 g/ha, visual score 15 DAA (100%=total damage, 0%=no damage), read-out: Post-emergence herbicidal activity (percentage phytotoxicity) AVEFA POST
[6] = pre-emergence, 480 h, PRE-emergence, rate 250 g/ha, visual score 20 DAA (100%=total damage, 0%=no damage), read-out: Pre-emergence herbicidal activity (percentage phytotoxicity) AVEFA PRE
[7] = post-emergence, 360 h, POST-emergence, rate 250 g/ha, visual score 15 DAA (100%=total damage, 0%=no damage), read-out: Post-emergence herbicidal activity (percentage phytotoxicity) LOLPE POST
[8] = pre-emergence, 480 h, PRE-emergence, rate 250 g/ha, visual score 20 DAA (100%=total damage, 0%=no damage), read-out: Pre-emergence herbicidal activity (percentage phytotoxicity) LOLPE PRE
[9] = post-emergence, 360 h, POST-emergence, rate 250 g/ha, visual score 15 DAA (100%=total damage, 0%=no damage), read-out: Post-emergence herbicidal activity (percentage phytotoxicity) ECHCG POST
[10] = pre-emergence, 480 h, PRE-emergence, rate 250 g/ha, visual score 20 DAA (100%=total damage, 0%=no damage), read-out: Pre-emergence herbicidal activity (percentage phytotoxicity) ECHCG PRE

Structure (SMILES): Cc1cc(C)c(C2C(=O)CC(CC(=O)NCCC3=CCCCC3)C2=O)c(C)c1 (stereo not shown) [Compound A91]
- pest or weed control at 250 g/ha ([1]; post-emergence, 360 h, Rate 250 g/ha, post-emergence, assessed visually 15 DAA, 100%=total damage, 0%=no damage, read-out: Post-emergence herbicidal activity (percentage phytotoxicity) ALOMY POST): 10%
- pest or weed control at 250 g/ha ([1]; pre-emergence, 480 h, Rate 250 g/ha, pre-emergence, assessed visually 20 DAA, 100%=total damage, 0%=no damage, read-out: Pre-emergence herbicidal activity (percentage phytotoxicity) ALOMY PRE): 30%
- pest or weed control at 250 g/ha (Avena fatua (AVEFA); post-emergence, 360 h, Rate 250 g/ha, post-emergence, assessed visually 15 DAA, 100%=total damage, 0%=no damage, read-out: Post-emergence herbicidal activity (percentage phytotoxicity) AVEFA POST): 0%
- pest or weed control at 250 g/ha (Avena fatua (AVEFA); pre-emergence, 480 h, Rate 250 g/ha, pre-emergence, assessed visually 20 DAA, 100%=total damage, 0%=no damage, read-out: Pre-emergence herbicidal activity (percentage phytotoxicity) AVEFA PRE): 30%
- pest or weed control at 250 g/ha (Lolium perenne (LOLPE); post-emergence, 360 h, Rate 250 g/ha, post-emergence, assessed visually 15 DAA, 100%=total damage, 0%=no damage, read-out: Post-emergence herbicidal activity (percentage phytotoxicity) LOLPE POST): 70%
- pest or weed control at 250 g/ha (Lolium perenne (LOLPE); pre-emergence, 480 h, Rate 250 g/ha, pre-emergence, assessed visually 20 DAA, 100%=total damage, 0%=no damage, read-out: Pre-emergence herbicidal activity (percentage phytotoxicity) LOLPE PRE): 70%
- pest or weed control at 250 g/ha ([2]; post-emergence, 360 h, Rate 250 g/ha, post-emergence, assessed visually 15 DAA, 100%=total damage, 0%=no damage, read-out: Post-emergence herbicidal activity (percentage phytotoxicity) ECHCG POST): 0%
- pest or weed control at 250 g/ha ([2]; pre-emergence, 480 h, Rate 250 g/ha, pre-emergence, assessed visually 20 DAA, 100%=total damage, 0%=no damage, read-out: Pre-emergence herbicidal activity (percentage phytotoxicity) ECHCG PRE): 20%

Structure (SMILES): C#CCNC(=O)CC1CC(=O)C(c2c(C)cc(-n3cc(Cl)cn3)cc2C)C1=O (stereo not shown) [Compound B317]
- pest or weed control at 250 g/ha [1, 3]: 100%
- pest or weed control at 250 g/ha [1, 4]: 90%
- pest or weed control at 250 g/ha (Avena fatua (AVEFA); [5]): 100%
- pest or weed control at 250 g/ha (Avena fatua (AVEFA); [6]): 90%
- pest or weed control at 250 g/ha (Lolium perenne (LOLPE); [7]): 90%
- pest or weed control at 250 g/ha (Lolium perenne (LOLPE); [8]): 90%
- pest or weed control at 250 g/ha [2, 9]: 100%
- pest or weed control at 250 g/ha [2, 10]: 100%

Structure (SMILES): Cc1cc(-c2nccs2)cc(C)c1C1C(=O)CC(CC(=O)NC(C)(C)C)C1=O (stereo not shown) [Compound A186]
- pest or weed control at 250 g/ha ([1]; post-emergence, 360 h, post-emergence, 250 g/ha, 15 DAA, visual score (100%=total damage; 0%=no damage), read-out: ALOMY POST herbicidal activity (percentage phytotoxicity)): 40%
- pest or weed control at 250 g/ha ([1]; pre-emergence, 480 h, pre-emergence, 250 g/ha, 20 DAA, visual score (100%=total damage; 0%=no damage), read-out: ALOMY PRE herbicidal activity (percentage phytotoxicity)): 40%
- pest or weed control at 250 g/ha (Avena fatua (AVEFA); post-emergence, 360 h, post-emergence, 250 g/ha, 15 DAA, visual score (100%=total damage; 0%=no damage), read-out: AVEFA POST herbicidal activity (percentage phytotoxicity)): 30%
- pest or weed control at 250 g/ha (Avena fatua (AVEFA); pre-emergence, 480 h, pre-emergence, 250 g/ha, 20 DAA, visual score (100%=total damage; 0%=no damage), read-out: AVEFA PRE herbicidal activity (percentage phytotoxicity)): 0%
- pest or weed control at 250 g/ha (Lolium perenne (LOLPE); post-emergence, 360 h, post-emergence, 250 g/ha, 15 DAA, visual score (100%=total damage; 0%=no damage), read-out: LOLPE POST herbicidal activity (percentage phytotoxicity)): 60%
- pest or weed control at 250 g/ha (Lolium perenne (LOLPE); pre-emergence, 480 h, pre-emergence, 250 g/ha, 20 DAA, visual score (100%=total damage; 0%=no damage), read-out: LOLPE PRE herbicidal activity (percentage phytotoxicity)): 60%
- pest or weed control at 250 g/ha ([2]; post-emergence, 360 h, post-emergence, 250 g/ha, 15 DAA, visual score (100%=total damage; 0%=no damage), read-out: ECHCG POST herbicidal activity (percentage phytotoxicity)): 80%
- pest or weed control at 250 g/ha ([2]; pre-emergence, 480 h, pre-emergence, 250 g/ha, 20 DAA, visual score (100%=total damage; 0%=no damage), read-out: ECHCG PRE herbicidal activity (percentage phytotoxicity)): 70%

Structure (SMILES): C#CCCNC(=O)CC1CC(=O)C(c2c(C)cc(C)cc2C)C1=O (stereo not shown) [Compound B37]
- pest or weed control at 250 g/ha ([1]; post-emergence, 360 h, 250 g/ha, post-emergence, 15 DAA, visual assessment (100%=total damage, 0%=no damage), read-out: Post-emergence herbicidal activity (percentage phytotoxicity) ALOMY POST): 70%
- pest or weed control at 250 g/ha ([1]; pre-emergence, 480 h, 250 g/ha, pre-emergence, 20 DAA, visual assessment (100%=total damage, 0%=no damage), read-out: Pre-emergence herbicidal activity (percentage phytotoxicity) ALOMY PRE): 70%
- pest or weed control at 250 g/ha (Avena fatua (AVEFA); post-emergence, 360 h, 250 g/ha, post-emergence, 15 DAA, visual assessment (100%=total damage, 0%=no damage), read-out: Post-emergence herbicidal activity (percentage phytotoxicity) AVEFA POST): 100%
- pest or weed control at 250 g/ha (Avena fatua (AVEFA); pre-emergence, 480 h, 250 g/ha, pre-emergence, 20 DAA, visual assessment (100%=total damage, 0%=no damage), read-out: Pre-emergence herbicidal activity (percentage phytotoxicity) AVEFA PRE): 90%
- pest or weed control at 250 g/ha (Lolium perenne (LOLPE); post-emergence, 360 h, 250 g/ha, post-emergence, 15 DAA, visual assessment (100%=total damage, 0%=no damage), read-out: Post-emergence herbicidal activity (percentage phytotoxicity) LOLPE POST): 80%
- pest or weed control at 250 g/ha (Lolium perenne (LOLPE); pre-emergence, 480 h, 250 g/ha, pre-emergence, 20 DAA, visual assessment (100%=total damage, 0%=no damage), read-out: Pre-emergence herbicidal activity (percentage phytotoxicity) LOLPE PRE): 100%
- pest or weed control at 250 g/ha ([2]; post-emergence, 360 h, 250 g/ha, post-emergence, 15 DAA, visual assessment (100%=total damage, 0%=no damage), read-out: Post-emergence herbicidal activity (percentage phytotoxicity) ECHCG POST): 90%
- pest or weed control at 250 g/ha ([2]; pre-emergence, 480 h, 250 g/ha, pre-emergence, 20 DAA, visual assessment (100%=total damage, 0%=no damage), read-out: Pre-emergence herbicidal activity (percentage phytotoxicity) ECHCG PRE): 90%

Structure (SMILES): CCc1cc(-n2cc(Cl)cn2)cc(C)c1C1C(=O)CC(CC(=O)NCc2cccc(Cl)c2)C1=O (stereo not shown) [Compound B231]
- pest or weed control at 250 g/ha [1, 3]: 90%
- pest or weed control at 250 g/ha [1, 4]: 50%
- pest or weed control at 250 g/ha (Avena fatua (AVEFA); [5]): 100%
- pest or weed control at 250 g/ha (Avena fatua (AVEFA); [6]): 20%
- pest or weed control at 250 g/ha (Lolium perenne (LOLPE); [7]): 90%
- pest or weed control at 250 g/ha (Lolium perenne (LOLPE); [8]): 80%
- pest or weed control at 250 g/ha [2, 9]: 90%
- pest or weed control at 250 g/ha [2, 10]: 80%

Reference: patent US10206394B2, “Herbicidal compounds” (Syngenta Participations AG, priority 2014, dated 2019)
